From patent publication US9029337B2, “Modulation of factor 7 expression” (Isis Pharmaceuticals, Inc., priority 2007, dated 2015)
e = 2'-O-(2-methoxyethyl) (MOE); d = 2'-deoxy (DNA)

Assays:
Format in all cases: in vivo, mouse
murine Factor 7 protein = experiment: Plasma Factor 7 protein, Factor 7 chromogenic assay, BALB/c mice
Procedure: BALB/c mice were treated with ISIS 403102 ([…], target site 11336, incorporated herein as SEQ ID NO: 161). BALB/c mice were injected subcutaneously with 5 mg/kg, 10 mg/kg, 25 mg/kg, or 50 mg/kg of ISIS 403102 twice a week for 3 weeks. A control group of mice was injected subcutaneously with PBS twice a week for 3 weeks. After the treatment period, whole liver was collected for RNA and protein analysis, and plasma was collected for clotting analysis (PT/aPTT).
Plasma Factor 7 protein was measured using a Factor 7 chromogenic assay (Hyphen BioMed). […] Results are presented as percent inhibition of Factor 7, relative to control.

[1] = system: extrinsic pathway of blood coagulation; experiment: Prothrombin Time (PT) in platelet poor plasma of treated BALB/c mice
Procedure: Prothrombin Time (PT) and Activated Partial Thromboplastin Time (aPTT) were measured using platelet poor plasma (PPP) from mice treated with ISIS 403102. PT and aPTT values provided in Table 20 are reported as International Normalized Ratio (INR) values. INR values for PT and aPTT were determined by dividing the PT or aPTT value for the experimental group by the PT or aPTT for the PBS treated group. This ratio was then raised to the power of the International Sensitivity Index (ISI) of the tissue factor used.
Prothrombin Time (PT) and Activated Partial Thromboplastin Time (aPTT) were measured using platelet poor plasma (PPP) from mice treated with ISIS 403102. PT and aPTT values provided in Table 22 are reported as International Normalized Ratio (INR) values. INR values for PT and aPTT were determined by dividing the PT or aPTT value for the experimental group (i.e. 50 mg/kg treatment with ISIS 403102) by the PT or aPTT for the PBS treated group. This ratio was then raised to the power of the International Sensitivity Index (ISI) of the tissue factor used.
Prothrombin Time (PT) and Activated Partial Thromboplastin Time (aPTT) were measured using platelet poor plasma (PPP) from mice treated with ISIS 403102. PT and aPTT values provided in Table 24 are reported as International Normalized Ratio (INR) values. INR values for PT and aPTT were determined by dividing the PT or aPTT value for the experimental group (i.e. 50 mg/kg treatment with ISIS 403102) by the PT or aPTT for the PBS treated group. This ratio was then raised to the power of the International Sensitivity Index (ISI) of the tissue factor used.

murine Factor 7 mRNA = experiment: Multiple dose pharmacokinetic assay: liver Factor 7 mRNA in mice; settings: for % Inhibition: liver Factor 7 mRNA, mice, relative to PBS control
Procedure: The duration of action of multiple doses of ISIS 403102 on antisense inhibition of murine Factor 7 and clotting time was evaluated. In a first group of mice, 25 mg/kg of ISIS 403102 was injected subcutaneously as a single dose. Mice from the first group were sacrificed on days 1 and 3 after the single dose. In a second group of mice, 25 mg/kg of ISIS 403102 was administered subcutaneously twice a week for 1 week. Mice from the second group were sacrificed on day 3 after the last dose of ISIS 403102 was administered. In a third group of mice, 25 mg/kg of ISIS 403102 was administered subcutaneously twice a week for 2 weeks. Mice from the third group were sacrificed on day 3 after the last dose of ISIS 403102 was administered. In a fourth group of mice, 25 mg/kg of ISIS 403102 was administered subcutaneously twice a week for 3 weeks. Mice from the fourth group were sacrificed on days 2, 7, 14, 28, 42, and 56 after the last dose of ISIS 403102 was administered. A control group of 3 mice was injected with PBS in a single dose. Mice from the control group were sacrificed 1 day later. Mice in all groups were sacrificed by cervical dislocation following anesthesia with 150 mg/kg ketamine mixed with 10 mg/kg xylazine administered by intraperitoneal injection. Liver was harvested for RNA analysis and plasma was collected for clotting analysis (PT and aPTT) for mice in all groups.
RNA was extracted from liver tissue for quantitative RT-PCR analysis of Factor 7. Results are presented as percent inhibition of Factor 7, relative to PBS control. […] Inhibition increased through day 3 in the single dose treatment group. […] Inhibition increased through day 3 in the 2 dose treatment group.

CCATAGAACAGCTTCACAGG (sugars from the 5' end e5 d10 e5, backbone and methylation of C not given here) [ISIS 403102]
% inhibition of murine Factor 7 protein (murine Factor 7 protein; 5 mg/kg subcutaneously twice a week for 3 weeks): 71%
% inhibition of murine Factor 7 protein (murine Factor 7 protein; 10 mg/kg subcutaneously twice a week for 3 weeks): 88%
% inhibition of murine Factor 7 protein (murine Factor 7 protein; 25 mg/kg subcutaneously twice a week for 3 weeks): 99%
% inhibition of murine Factor 7 protein (murine Factor 7 protein; 50 mg/kg subcutaneously twice a week for 3 weeks): 99%
reduction of murine Factor 7 protein over the PBS control (murine Factor 7 protein; 5-50 mg/kg twice a week for 3 weeks): dose-dependent reduction of murine Factor 7 protein
PT INR ([1]; BALB/c mice, 5 mg/kg, relative to PBS treated group): 1.09
PT INR ([1]; BALB/c mice, 10 mg/kg, relative to PBS treated group): 1.33
PT INR ([1]; BALB/c mice, 25 mg/kg, relative to PBS treated group): 2.33
PT INR ([1]; BALB/c mice, 50 mg/kg, 1 dose, 1 day after last dose, relative to PBS group): 1.04 INR
PT INR ([1]; BALB/c mice, 50 mg/kg, 1 dose, 3 days after last dose, relative to PBS group): 1.20 INR
PT INR ([1]; BALB/c mice, 50 mg/kg, 2 doses, 3 days after last dose, relative to PBS group): 1.43 INR
PT INR ([1]; BALB/c mice, 50 mg/kg, 4 doses, 3 days after last dose, relative to PBS group): 2.13 INR
PT INR ([1]; BALB/c mice, 50 mg/kg, 6 doses, 2 days after last dose, relative to PBS group): 1.64 INR
PT INR ([1]; BALB/c mice, 50 mg/kg, 6 doses, 7 days after last dose, relative to PBS group): 2.08 INR
PT INR ([1]; BALB/c mice, 50 mg/kg, 6 doses, 14 days after last dose, relative to PBS group): 1.37 INR
PT INR ([1]; BALB/c mice, 50 mg/kg, 6 doses, 28 days after last dose, relative to PBS group): 0.96 INR
PT INR ([1]; BALB/c mice, 50 mg/kg, 6 doses, 42 days after last dose, relative to PBS group): 1.00 INR
PT INR ([1]; BALB/c mice, 50 mg/kg, 6 doses, 56 days after last dose, relative to PBS group): 0.99 INR
PT INR ([1]; BALB/c mice, 50 mg/kg, relative to PBS treated group): 4.37
PT INR ([1]; BALB/c mice, single dose 50 mg/kg, day 1): 1.11
PT INR ([1]; BALB/c mice, single dose 50 mg/kg, day 2): 1.64
PT INR ([1]; BALB/c mice, single dose 50 mg/kg, day 3): 1.81
PT INR ([1]; BALB/c mice, single dose 50 mg/kg, day 4): 1.97
PT INR ([1]; BALB/c mice, single dose 50 mg/kg, day 6): 1.59
PT INR ([1]; BALB/c mice, single dose 50 mg/kg, day 8): 1.55
PT INR ([1]; BALB/c mice, single dose 50 mg/kg, day 12): 1.30
PT INR ([1]; BALB/c mice, single dose 50 mg/kg, day 24): 1.12
PT INR ([1]; BALB/c mice, single dose 50 mg/kg, day 56): 1.10
PT compared to the control ([1]; Example 11, 5-50 mg/kg twice a week for 3 weeks): significantly prolonged
PT ([1]; Example 13, 6 doses, from day 7 to day 56): decreased
PT INR ([1]; single dose 50 mg/kg, day 1): 1.11
PT INR ([1]; single dose 50 mg/kg, day 4): 1.97
PT INR ([1]; single dose 50 mg/kg, day 56): 1.10
Factor 7 inhibition (murine Factor 7 mRNA; 6 doses of 25 mg/kg, days 14, 28, 42 and 56 after last dose): declined progressively
% Inhibition (murine Factor 7 mRNA; 25 mg/kg subcutaneously twice a week, 2 doses, 3 days after last dose): 86%
% Inhibition (murine Factor 7 mRNA; 25 mg/kg subcutaneously twice a week, 4 doses, 3 days after last dose): 91%
% Inhibition (murine Factor 7 mRNA; 25 mg/kg subcutaneously twice a week, 6 doses, 2 days after last dose): 83%
% Inhibition (murine Factor 7 mRNA; 25 mg/kg subcutaneously twice a week, 6 doses, 7 days after last dose): 88%
% Inhibition (murine Factor 7 mRNA; 25 mg/kg subcutaneously twice a week, 6 doses, 14 days after last dose): 64%
% Inhibition (murine Factor 7 mRNA; 25 mg/kg subcutaneously twice a week, 6 doses, 28 days after last dose): 33%
% Inhibition (murine Factor 7 mRNA; 25 mg/kg subcutaneously twice a week, 6 doses, 42 days after last dose): 5%
% Inhibition (murine Factor 7 mRNA; 25 mg/kg subcutaneously twice a week, 6 doses, 56 days after last dose): 11%
% Inhibition (murine Factor 7 mRNA; 25 mg/kg subcutaneously, 1 dose, 1 day after last dose): 44%
% Inhibition (murine Factor 7 mRNA; 25 mg/kg subcutaneously, 1 dose, 3 days after last dose): 74%
inhibition of Factor 7 mRNA (murine Factor 7 mRNA; single dose 25 mg/kg subcutaneously): inhibition of Factor 7 as early as day 1
